From patent US20080161232A1, “C5a Receptor Antagonist” (JERINI AG, priority 2005, published 2008)
Where two headings read alike, the source gives them in different places. Starred links: 1 amine or outer side, 2 acyl side, 3 side chain; linkers in the order of their positions; H or OH if unused. Positions of bridges follow the written chain, without caps; N, C: chain ends. Non-standard residues stand in square brackets, D forms with d. Residues, ends and D or L forms follow the SMILES beside them. Groups on a side chain read outwards from the residue. *: point of attachment. Decanoyl(3,6,9-trioxa) = COCCOCCOCC(=O)*; Phe(4-NH2) = Nc1ccc(C[C@H](N)C(=O)O)cc1; Phe(4-Me) = Cc1ccc(C[C@H](N)C(=O)O)cc1; 2Nal = N[C@@H](Cc1ccc2ccccc2c1)C(=O)O; His(τ-Me) = Cn1cnc(C[C@H](N)C(=O)O)c1; Hyp = O=C(O)[C@@H]1C[C@@H](O)CN1; 4Pal = N[C@@H](Cc1ccncc1)C(=O)O; 2Thi = N[C@@H](Cc1cccs1)C(=O)O; Cha = N[C@@H](CC1CCCCC1)C(=O)O; dCha = N[C@H](CC1CCCCC1)C(=O)O; NHCH2CH(OH)CH2OH = OCC(O)CN*; hLeu = CC(C)CC[C@H](N)C(=O)O; Nle = CCCC[C@H](N)C(=O)O; Orn = NCCC[C@H](N)C(=O)O; Pra = C#CC[C@H](N)C(=O)O; Nva = CCC[C@H](N)C(=O)O; CO = O=C([*:1])[*:2]

Molecular target: T1, human C5aR(CD88) (Homo sapiens, UniProt P21730)
T1 construct: expressed in transfected cells; host or cells: rat basophilic leukemia cells (RBL)
T1 sequence (P21730 1-350): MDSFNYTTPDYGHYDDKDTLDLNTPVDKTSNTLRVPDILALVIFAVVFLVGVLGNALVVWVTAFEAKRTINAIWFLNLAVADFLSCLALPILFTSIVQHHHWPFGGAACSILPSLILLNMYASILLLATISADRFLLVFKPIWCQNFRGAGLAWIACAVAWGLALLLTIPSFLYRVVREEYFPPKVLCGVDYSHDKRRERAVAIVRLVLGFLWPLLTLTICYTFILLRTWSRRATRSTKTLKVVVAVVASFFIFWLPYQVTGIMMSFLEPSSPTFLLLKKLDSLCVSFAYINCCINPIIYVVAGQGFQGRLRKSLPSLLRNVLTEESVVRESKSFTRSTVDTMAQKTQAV
Assay: Determination of the IC50 value in an enzyme release assay (functional assay, antagonistic activity)
Assay type: cell-based
Conditions: for inhibitory activity (in words): functional assay of example 11, noteworthy = IC50 less than 200 nM

[1] = antagonistic activity, IC50 group in enzyme release assay, RBL cells expressing human C5aR(CD88), read-out: activity (group)

| SMILES | IC50 [1] [nM] | inhibitory activity (in words) | also measured |
| --- | --- | --- | --- |
| CCCC[C@@H]1NC(=O)[C@H](Cc2c[nH]c3ccccc23)NC(=O)[C@@H](CC2CCCCC2)NC(=O)[C@@H]2CCCN2C(=O)[C@@H](NC(=O)[C@H](Cc2ccccc2)NC(=O)CON=CC(O)C(O)C(O)C(O)CO)CCCNC1=O (single isomer, unassigned) [Compound 334, Fck-Phe-[Orn-Pro-cha-Trp-Nle]] | 50 to 200 | – | – |
| CC(=O)N[C@@H](Cc1ccccc1)C(=O)N[C@@H](CCCCN)C(=O)N[C@@H](C)C(=O)N[C@@H](CC1CCCCC1)C(=O)N[C@@H](C)C(=O)N[C@@H](CC(C)C)C(=O)N[C@H](C)C(=O)N[C@@H](Cc1ccc(O)cc1)C(=O)O [Ac-Phe-Lys-Ala-Cha-Ala-Leu-ala-Tyr-OH, reference compound] (Ac-FKA[Cha]AL[dA]Y-OH) | – | – | IC50 (functional assay as used in this application, values in text, read-out: IC50): 1300 nM |
| COCCOCCOCC(=O)O[C@@H]1C[C@H]2C(=O)N[C@H](CC3CCCCC3)C(=O)N[C@@H](Cc3c[nH]c4ccccc34)C(=O)N[C@@H](Cc3ccccc3)C(=O)NCCC[C@H](NC(=O)[C@H](Cc3ccccc3)NC(C)=O)C(=O)N2C1 [Ac-Phe-[Orn-Hyp(COCH2OCH2CH2OCH2CH2OCH3)-cha-Trp-Phe]] (Ac-F[Orn][Hyp](Decanoyl(3,6,9-trioxa))[dCha]WF; lactam 2-C) | – | noteworthy inhibitory activity | – |
| CC(=O)N[C@@H](Cc1ccccc1)C(=O)N[C@H]1CCCNC(=O)[C@H](Cc2ccccc2)NC(=O)[C@H](Cc2c[nH]c3ccccc23)NC(=O)[C@@H](CC2CCCCC2)NC(=O)[C@H](CO)NC1=O [Ac-Phe-[Orn-Ser-cha-Trp-Phe]] (Ac-F[Orn]S[dCha]WF; lactam 2-C) | – | noteworthy inhibitory activity | – |
| CC(=O)N[C@@H](Cc1ccccc1)C(=O)N[C@H]1CCCNC(=O)[C@H](CCCNC2=NCCN2)NC(=O)[C@H](Cc2c[nH]c3ccccc23)NC(=O)[C@@H](CC2CCCCC2)NC(=O)[C@@H]2CCCN2C1=O [Compound 7, Ac-Phe-[Orn-Pro-cha-Trp-Arg(CH2CH2)]] | 200 to 2000 | – | – |
| CC(=O)N[C@@H](Cc1ccccc1)C(=O)N[C@H]1CCCNC(=O)[C@H](Cc2cn(C)cn2)NC(=O)[C@H](Cc2c[nH]c3ccccc23)NC(=O)[C@@H](CC2CCCCC2)NC(=O)[C@@H]2CCCN2C1=O [Compound 20, Ac-Phe-[Orn-Pro-cha-Trp-Ecr]] (Ac-F[Orn]P[dCha]W[His(τ-Me)]; lactam 2-C) | 50 to 200 | noteworthy inhibitory activity | – |
| CC(=O)N[C@@H](Cc1ccccc1)C(=O)N[C@H]1CCCNC(=O)[C@H](CCCCN)NC(=O)[C@H](Cc2c[nH]c3ccccc23)NC(=O)[C@@H](CC2CCCCC2)NC(=O)[C@@H]2CCCN2C1=O [Compound 22] (Ac-F[Orn]P[dCha]WK; lactam 2-C (inferred)) | > 2000 | – | – |
| CSCC[C@@H]1NC(=O)[C@H](Cc2c[nH]c3ccccc23)NC(=O)[C@@H](CC2CCCCC2)NC(=O)[C@@H]2CCCN2C(=O)[C@@H](NC(=O)[C@H](Cc2ccccc2)NC(C)=O)CCCNC1=O [Compound 29, Ac-Phe-[Orn-Pro-cha-Trp-Met]] (Ac-F[Orn]P[dCha]WM; lactam 2-C) | 50 to 200 | without significant loss of activity | inhibitory activity (in words) (listed as Ac-Phe-[Orn-Pro-cha-Trp-Met]): noteworthy inhibitory activity |
| CC(=O)N[C@@H](Cc1ccccc1)C(=O)N[C@H]1CCCNC(=O)[C@H](CCC(C)C)NC(=O)[C@H](Cc2c[nH]c3ccccc23)NC(=O)[C@@H](CC2CCCCC2)NC(=O)[C@@H]2CCCN2C1=O [Compound 32, Ac-Phe-[Orn-Pro-cha-Trp-Hle]] (Ac-F[Orn]P[dCha]W[hLeu]; lactam 2-C) | 20 to 50 | without significant loss of activity | inhibitory activity (in words) (listed as Ac-Phe-[Orn-Pro-cha-Trp-Hle]): noteworthy inhibitory activity |
| CCSC[C@@H]1NC(=O)[C@H](Cc2c[nH]c3ccccc23)NC(=O)[C@@H](CC2CCCCC2)NC(=O)[C@@H]2CCCN2C(=O)[C@@H](NC(=O)[C@H](Cc2ccccc2)NC(C)=O)CCCNC1=O [Compound 34, Ac-Phe-[Orn-Pro-cha-Trp-Ebd]] (Ac-F[Orn]P[dCha]WC(Et); lactam 2-C) | 20 to 50 | without significant loss of activity | inhibitory activity (in words) (listed as Ac-Phe-[Orn-Pro-cha-Trp-Ebd]): noteworthy inhibitory activity |
| C#CC[C@@H]1NC(=O)[C@H](Cc2c[nH]c3ccccc23)NC(=O)[C@@H](CC2CCCCC2)NC(=O)[C@@H]2CCCN2C(=O)[C@@H](NC(=O)[C@H](Cc2ccccc2)NC(C)=O)CCCNC1=O [Compound 35, Ac-Phe-[Orn-Pro-cha-Trp-Eag]] (Ac-F[Orn]P[dCha]W[Pra]; lactam 2-C) | 5 to 10 | without significant loss of activity | inhibitory activity (in words) (listed as Ac-Phe-[Orn-Pro-cha-Trp-Eag]): noteworthy inhibitory activity |
| CC(=O)N[C@@H](Cc1ccccc1)C(=O)N[C@H]1CCCNC(=O)[C@H](Cc2ccc3ccccc3c2)NC(=O)[C@H](Cc2c[nH]c3ccccc23)NC(=O)[C@@H](CC2CCCCC2)NC(=O)[C@@H]2CCCN2C1=O [Compound 37, Ac-Phe-[Orn-Pro-cha-Trp-2Ni]] (Ac-F[Orn]P[dCha]W[2Nal]; lactam 2-C) | 50 to 200 | without significant loss of activity | inhibitory activity (in words) (listed as Ac-Phe-[Orn-Pro-cha-Trp-2Ni]): noteworthy inhibitory activity |

More lines, main results first:

| IC50 [1] [nM] | inhibitory activity (in words) | SMILES | also measured |
| --- | --- | --- | --- |
| – | noteworthy inhibitory activity | CC(=O)N[C@@H](Cc1ccccc1)C(=O)N[C@H]1CCCNC(=O)[C@H](Cc2ccncc2)NC(=O)[C@H](Cc2c[nH]c3ccccc23)NC(=O)[C@@H](CC2CCCCC2)NC(=O)[C@@H]2CCCN2C1=O [Ac-Phe-[Orn-Pro-cha-Trp-Ppa]] (Ac-F[Orn]P[dCha]W[4Pal]; lactam 2-C) | – |
| 50 to 200 | – | CCCC[C@@H]1NC(=O)[C@H](Cc2c[nH]c3ccccc23)NC(=O)[C@@H](CC2CCCCC2)NC(=O)[C@@H]2C[C@@H](OC(=O)COCCOCCOC)CN2C(=O)[C@@H](NC(=O)[C@H](Cc2ccccc2)NC(C)=O)CCCNC1=O [Compound 5, Ac-Phe-[Orn-Hyp(COCH2OCH2CH2OCH2CH2OCH3)-cha-Trp-Nle]] (Ac-F[Orn][Hyp](Decanoyl(3,6,9-trioxa))[dCha]W[Nle]; lactam 2-C) | – |
| 50 to 200 | – | CCCC[C@@H]1NC(=O)[C@H](Cc2c[nH]c3ccccc23)NC(=O)[C@@H](CC2CCCCC2)NC(=O)[C@@H]2C[C@@H](OC(=O)NCC(O)CO)CN2C(=O)[C@@H](NC(=O)[C@H](Cc2ccccc2)NC(C)=O)CCCNC1=O (stereo partly drawn) [Compound 6, Ac-Phe-[Orn-Hyp(CONH—CH2CH(OH)—CH2OH)-cha-Trp-Nle]] (Ac-F[Orn][Hyp]([CO-NHCH2CH(OH)CH2OH])[dCha]W[Nle]; lactam 2-C) | – |
| 200 to 2000 | – | CC(=O)N[C@@H](Cc1ccccc1)C(=O)N[C@H]1CCCNC(=O)[C@H](CCCNC(N)=O)NC(=O)[C@H](Cc2c[nH]c3ccccc23)NC(=O)[C@@H](CC2CCCCC2)NC(=O)[C@@H]2CCCN2C1=O [Compound 10, Ac-Phe-[Orn-Pro-cha-Trp-Cit], reference compound] | – |
| 20 to 50 | noteworthy inhibitory activity | CC(=O)N[C@@H](Cc1ccccc1)C(=O)N[C@H]1CCCNC(=O)[C@H](Cc2ccc(N)cc2)NC(=O)[C@H](Cc2c[nH]c3ccccc23)NC(=O)[C@@H](CC2CCCCC2)NC(=O)[C@@H]2CCCN2C1=O [Compound 14, Ac-Phe-[Orn-Pro-cha-Trp-Paf]] (Ac-F[Orn]P[dCha]W[Phe(4-NH2)]; lactam 2-C (inferred)) | IC50 (functional assay of example 11, values in text, read-out: IC50): 30 nM |
| 10 to 20 | without significant loss of activity | CCC[C@@H]1NC(=O)[C@H](Cc2c[nH]c3ccccc23)NC(=O)[C@@H](CC2CCCCC2)NC(=O)[C@@H]2CCCN2C(=O)[C@@H](NC(=O)[C@H](Cc2ccccc2)NC(C)=O)CCCNC1=O [Compound 31, Ac-Phe-[Orn-Pro-cha-Trp-Nva]] (Ac-F[Orn]P[dCha]W[Nva]; lactam 2-C) | inhibitory activity (in words) (listed as Ac-Phe-[Orn-Pro-cha-Trp-Nva]): noteworthy inhibitory activity |
| 20 to 50 | without significant loss of activity | CC(=O)N[C@@H](Cc1ccccc1)C(=O)N[C@H]1CCCNC(=O)[C@H](Cc2ccc(C)cc2)NC(=O)[C@H](Cc2c[nH]c3ccccc23)NC(=O)[C@@H](CC2CCCCC2)NC(=O)[C@@H]2CCCN2C1=O [Compound 36, Ac-Phe-[Orn-Pro-cha-Trp-Pmf]] (Ac-F[Orn]P[dCha]W[Phe(4-Me)]; lactam 2-C) | inhibitory activity (in words) (listed as Ac-Phe-[Orn-Pro-cha-Trp-Pmf]): noteworthy inhibitory activity |
| 20 to 50 | without significant loss of activity | CC(=O)N[C@@H](Cc1ccccc1)C(=O)N[C@H]1CCCNC(=O)[C@H](Cc2cccs2)NC(=O)[C@H](Cc2c[nH]c3ccccc23)NC(=O)[C@@H](CC2CCCCC2)NC(=O)[C@@H]2CCCN2C1=O [Compound 38, Ac-Phe-[Orn-Pro-cha-Trp-Thi]] (Ac-F[Orn]P[dCha]W[2Thi]; lactam 2-C) | inhibitory activity (in words) (listed as Ac-Phe-[Orn-Pro-cha-Trp-Thi]): noteworthy inhibitory activity |
